18 compounds from ChEMBL document CHEMBL1154786, “Analgesic, anticonvulsant and anti-inflammatory activities of some synthesized benzodiazipine, triazolopyrimidine and bis-imide derivatives” (Eur J Med Chem, 2009) can be followed below.

Series [1] in a line: Acute toxicity in rat. The conditions noted are these: in vivo. The format is organism-based.
For series [2], the system named is Mus musculus. As to the kind of experiment: Analgesic activity in Webster mouse assessed as normal reaction time at 5 mg/kg, sc after 10-120 mins by hot plate assay relative to valdecoxib. The format is functional. The conditions noted are these: route subcutaneous. On the technique in general: Thermal pain tests record how soon the animal reacts.
For series [3], the system named is Mus musculus. Description: Anticonvulsant activity in Webster mouse assessed as protection against yohimbine-HCl-induced clonic seizure at 5 mg/kg, ip administered 30 mins before yohimbine-HCl challenge. It counts as functional.
For series [4], the system named is Mus musculus. Description: Anticonvulsant activity in Webster mouse assessed as protection against yohimbine-HCl-induced clonic seizure at 5 mg/kg, ip administered 30 mins before yohimbine-HCl challenge relative to carbamazepine. It counts as functional.
In series [5] the test system is Rattus norvegicus. As to the kind of experiment: Antiinflammatory activity in albino rat assessed as inhibition of increase in plasma PGE2 level at 50 mg/kg, po by EIA. The format is functional.
Series [6] deals with Rattus norvegicus. Description: Antiinflammatory activity in albino rat assessed as protection against carrageenan-induced paw edema at 50 mg/kg, po administered 1 hr before carrageenan challenge measured after 4 hrs. The format is functional.
Series [7] deals with Rattus norvegicus. As to the kind of experiment: Antiinflammatory activity in albino rat assessed as inhibition of increase in plasma PGE2 level at 25 mg/kg, po by EIA. The format is functional.
The subject of series [8] is Rattus norvegicus. Description: Antiinflammatory activity in albino rat assessed as protection against carrageenan-induced paw edema at 25 mg/kg, po administered 1 hr before carrageenan challenge measured after 4 hrs. It counts as functional. In general terms: Carrageenan injected into the paw causes an acute inflammation.

Calls of active or inactive are those of the source. The calls are words filed in the database; no cut-off is given here.

Broadly, the LD50 is the dose at which mortality reaches 50%. In general, ED50 refers to the dose that gives a 50% effect, or the effect in half of the subjects. Usually inhibition in vivo stands for the relative decrease from the control value, in per cent.

In series [1], `CC1=CC(c2ccccc2)N=C(Nn2c(=O)c3cc4c(=O)n(NC5=NC(c6ccccc6)C=C(C)N5)c(=O)c4cc3c2=O)N1` (stereo not given) registered an LD50 of 1.68 mg/kg.
Regarding `CCOC(=O)C1C(=O)C=C(C)CC1c1ccccc1` (stereo not given), the Activity is given as 60% in the series with Mus musculus [2], 0.68 in the series on Mus musculus [4] (route intraperitoneal) and 60.26% in the series with Rattus norvegicus [6]. In addition, the median effective dose (ED50) in the series with Mus musculus [3] (route intraperitoneal) was determined as 50 mg/kg. Also, the inhibition in vivo at 50 mg/kg with Rattus norvegicus [5] stood at 54.5%. This compound also had an LD50 in series [1] of 1.74 mg/kg.
`CC1=Cc2c(c(C)nn2-c2ccccc2)C(c2ccccc2)C1` (stereo not given) had a 50% lethal dose (LD50) in series [1] of 1.92 mg/kg.
For the compound `CC1=CC(c2ccccc2)NC(=S)N1CN1CCOCC1` (stereo not given), the Activity is 60% in the series with Mus musculus [2], 2.3 with Mus musculus [4] (route intraperitoneal), 85.84% in the series on Rattus norvegicus [8] and 98.41% with Rattus norvegicus [6]. Further, the inhibition in vivo at 25 mg/kg in the series with Rattus norvegicus [7] was 90.3%. Further, the ED50 in the series on Mus musculus [3] (route intraperitoneal) amounted to 13 mg/kg. The 50% lethal dose (LD50) in series [1] came to 1.69 mg/kg.
With `NC(=O)N1c2ccccc2C=Cc2ccccc21` [CARBAMAZEPINE], in the series on Mus musculus [3] (route intraperitoneal), the 50% effective dose (ED50) worked out at 28 mg/kg.
Take `CC(=O)C1C(=O)C=C(C)CC1c1ccccc1` (stereo not given): in series [1], the median lethal dose (LD50) worked out at 1.72 mg/kg.
In the case of `C[C@]12C=CC(=O)C=C1CC[C@@H]1[C@@H]2[C@@H](O)C[C@@]2(C)[C@H]1CC[C@]2(O)C(=O)CO` [PREDNISOLONE], the inhibition in vivo at 25 mg/kg with Rattus norvegicus [7] amounted to 77%. Moreover, the figures for the Activity with Rattus norvegicus [8] and in the series on Rattus norvegicus [6] were 81% and 92%, respectively. Further, the inhibition in vivo at 50 mg/kg with Rattus norvegicus [5] came out at 91%. The same compound yielded an LD50 in series [1] of 1.62 mg/kg.
Take `CC1=CC(c2ccccc2)Nc2nnc(C)n21` (stereo not given): the LD50 in series [1] was found to be 1.97 mg/kg.
`CC1=Cc2[nH]c(=S)nc(C)c2C(c2ccccc2)C1` (stereo not given): in the series on Mus musculus [2], the Activity is 60%. The compound further had a median lethal dose (LD50) in series [1] of 1.87 mg/kg.
Consider `CC1=Cc2c(c(=O)[nH]n2-c2ccccc2)C(c2ccccc2)C1` (stereo not given), for which the Activity with Mus musculus [2] came out at 60%; in the series on Rattus norvegicus [8] it was 63.9%; with Rattus norvegicus [6], 64.8%. Moreover, in the series on Rattus norvegicus [7], the inhibition in vivo at 25 mg/kg was 54.9%. In the series with Mus musculus [3], the ED50 result was “inactive”. In addition, the outcome in the series with Mus musculus [4] was inactive. Besides, the inhibition in vivo at 50 mg/kg with Rattus norvegicus [5] was 67%. The compound further registered an LD50 in series [1] of 1.86 mg/kg.
`CC1=CC(c2ccccc2)NC(NN)N1` (stereo not given) gave a median lethal dose (LD50) in series [1] of 1.88 mg/kg.
On to `CC1=CC2=NC(=S)NC(=O)C2C(c2ccccc2)C1` (stereo not given), for which the Activity in the series with Mus musculus [2] turned out to be 130%; with Mus musculus [4] (route intraperitoneal) it was 2.04; in the series with Rattus norvegicus [8], 74.38%; in the series on Rattus norvegicus [6], 85.24%. Further, the inhibition in vivo at 25 mg/kg with Rattus norvegicus [7] came out at 72.1%. The ED50 in the series on Mus musculus [3] (route intraperitoneal) was 15 mg/kg. Also, the inhibition in vivo at 50 mg/kg in the series on Rattus norvegicus [5] came out at 82.8%. This compound came in with a median lethal dose (LD50) in series [1] of 1.88 mg/kg.
Take `CC1=CC(c2ccccc2)N=C(NN2C(=O)c3cccc4cccc(c34)C2=O)N1` (stereo not given): the figures for the Activity in the series with Mus musculus [2], in the series on Rattus norvegicus [8] and with Rattus norvegicus [6] were 60%, 87.8% and 93.15%, respectively. Moreover, the inhibition in vivo at 25 mg/kg in the series with Rattus norvegicus [7] amounted to 88.7%. Moreover, the ED50 entry in the series with Mus musculus [3] was “inactive”. Besides, the result in the series on Mus musculus [4] was inactive. The inhibition in vivo at 50 mg/kg in the series on Rattus norvegicus [5] was found to be 95.6%. For the same compound, in series [1], the LD50 amounted to 1.85 mg/kg.
Consider `CC1=CC(c2ccccc2)Nc2ncnn21` (stereo not given), for which the Activity was found to be 60% in the series on Mus musculus [2], 2.51 with Mus musculus [4] (route intraperitoneal), 85.25% in the series on Rattus norvegicus [8] and 96.05% in the series on Rattus norvegicus [6]. The inhibition in vivo at 25 mg/kg in the series on Rattus norvegicus [7] worked out at 80.7%. In addition, the median effective dose (ED50) with Mus musculus [3] (route intraperitoneal) is 10 mg/kg. The inhibition in vivo at 50 mg/kg in the series with Rattus norvegicus [5] worked out at 94.6%. The same compound came in with a 50% lethal dose (LD50) in series [1] of 1.75 mg/kg.
`CC1=CC(c2ccccc2)N=C(n2cc(C)c(C)n2)N1` (stereo not given) registered an LD50 in series [1] of 1.79 mg/kg.
As for `CC1=CC(c2ccccc2)N=C(NN2C(=O)c3ccc4c5c(ccc(c35)C2=O)C(=O)N(NC2=NC(c3ccccc3)C=C(C)N2)C4=O)N1` (stereo not given), the Activity came out at 60% in the series with Mus musculus [2], 1.8 with Mus musculus [4] (route intraperitoneal), 48.5% in the series on Rattus norvegicus [8] and 51.6% with Rattus norvegicus [6]. Further, the inhibition in vivo at 25 mg/kg in the series on Rattus norvegicus [7] came out at 58.8%. In addition, the ED50 with Mus musculus [3] (route intraperitoneal) was 15 mg/kg. Further, the inhibition in vivo at 50 mg/kg in the series on Rattus norvegicus [5] stood at 65%. The compound also showed an LD50 in series [1] of 1.78 mg/kg.
`CC1=CC(c2ccccc2)NC(=S)N1` (stereo not given): the Activity with Mus musculus [2] is listed as 130%; with Mus musculus [4] (route intraperitoneal) it was 1; in the series on Rattus norvegicus [8] it was 84.52%; in the series on Rattus norvegicus [6], 96.1%. Moreover, the inhibition in vivo at 25 mg/kg in the series on Rattus norvegicus [7] was 78.4%. Further, the median effective dose (ED50) with Mus musculus [3] (route intraperitoneal) came to 32 mg/kg. In the series on Rattus norvegicus [5], the inhibition in vivo at 50 mg/kg was determined as 93.5%. Further, the LD50 in series [1] stood at 1.8 mg/kg.
Take `CC1=CC(c2ccccc2)Nc2n[nH]c(=S)n21` (stereo not given): in the series on Mus musculus [3], the ED50 result was “inactive”. For the same compound, the result in the series on Mus musculus [4] was inactive. Further, the inhibition in vivo at 50 mg/kg with Rattus norvegicus [5] was found to be 66.8%. The same compound displayed an LD50 in series [1] of 1.8 mg/kg. Besides, the Activity in the series on Rattus norvegicus [6] was 42.38%.
